# According to patent US20260308158A1, “TARGETING RNAS ASSOCIATED WITH TAUOPATHIES WITH SMALL MOLECULES” (University of Florida Research Foundation, Incorporated, priority 2023, published 2026):
# Key:
# [1] = format: physicochemical; details: not tested for this reason
# WT I17T mutant RNA = experiment: Fluorescent binding affinity, WT I17T mutant RNA
# Method: Fluorescent Binding Affinity Measurements. Binding assays were completed as previously described.^30 Briefly, the RNA of interest was folded in 1× Assay Buffer-1 (AB1: 8 mM Na2HPO4, pH 7.0, 185 mM NaCl, and 1 mM EDTA) by heating at 95° C. for 30 s followed by slowly cooling to room temperature. Bovine serum albumin (BSA) was then added to a final concentration of 40 μg/mL to afford 1× Assay Buffer-2 (AB2: 8 mM Na2HPO4, pH 7.0, 185 mM NaCl, 1 mM EDTA, and 40 μg/mL BSA). The RNA solution was serial diluted with 1×AB2. Then, compound of interest was added to the RNA solutions to a final concentration of 0.5 μM. […] Fluorescence intensity was measured using a Tecan Plate Reader (Gain: 100, Integration time: 40 μs). […] The change in fluorescence of the small molecule was calculated by its comparison to samples lacking RNA. Binding affinity was calculated using Equation 1, as previously described:^30
# where I and I0 are the measured fluorescence intensity of the compound with or without RNA, respectively, Δε is the difference between the fluorescence intensity with the infinite concentration of RNA and the fluorescence intensity without RNA, [SM]0 and [RNA]0 are the concentrations of the small molecule (SM) and RNA, respectively, and Kd is the dissociation constant.
# [2] = test system: DDPAC MAPT exon 10 mini-gene luciferase reporter; experiment: Luciferase reporter assay of exon 10 splicing, DDPAC mini-gene in HeLa cells; format: cell-based
# Method: (§1) Luciferase-reporter Assay to Study Exon 10 Alternative Splicing. The exon 10 mini-genes, both WT and DDPAC and mutant thereof, fused to firefly luciferase, have been previously described.^18 HeLa cells were seeded in 60 mm diameter dishes and incubated for 12-16 h to 70% confluency. They were then transfected with WT, WT+I17T, DDPAC, or DDPAC+I17T luciferase reporter minigenes using JetPrime (Polyplus Transfection) per the manufacturer's recommended protocol and incubated for 4 h. After transfection, the cells were collected by trypsinization and re-seeded in 96-well plates at 0.2×10^5 cells per well, followed by treatment of compounds after 4 h. Compound stocks prepared in DMSO were diluted in growth medium and added to cells with final DMSO concentration at 0.1% (v/v). After a 48 h treatment period, the cells were washed with 1× DPBS. Each well was added with a mixture of 10 μL WST-1 reagent and 90 μL of growth medium. After incubation at 37° C. for 45 min, absorbance was measured at 450 and 690 nm. A690 as background was subtracted from A450 to obtain A450′. After removal of WST-1/DMEM from wells, the cells were washed again with 1×DPBS and treated with 100 μL of One-Glo EX reagent (Promega, E8110) per well. The plate was incubated at room temperature for 20 min and the luminescence was measured with a […] plate reader (1000 ms integration time). The resulted luminescence was normalized to A450′.
# [3] = test system: DDPAC MAPT mini-gene pre-mRNA; experiment: Chem-CLIP / C-Chem-CLIP in HeLa cells transfected with DDPAC mini-gene; format: cell-based; details: HeLa, DDPAC mini-gene
# Method: (§2) Measuring Cellular Occupancy by Chem-CLIP and C-Chem-CLIP. LAN5 cells were grown to ~80% confluency in 100 mm diameter dishes. HeLa cells were transfected as described in the Luciferase Reporter Assay to Study Exon 10 Alternative Splicing except they were re-plated in 100 mm diameter dishes and grown to ~80% confluency (~1 day). The cells were then treated with 1.5 μM of 3 or 4 for 12 h. For C-Chem-CLIP, dilutions of competing compounds 1 or 2 were pre-incubated with cells for 12 h prior to adding 3. After addition of 3, the cells were incubated for an additional 12 h. After the treatment period, whether for Chem-CLIP or C-Chem-CLIP studies, the cells were washed with 10 mL of 1×DPBS. Ice-cold 1×DPBS (10 mL) was then added to the plate followed by irradiation with 365 nm light in a UV Stratalinker 2400 (Stratagene). Cells were scraped with a cell scraper, transferred to a 15 mL conical vial, and collected by centrifugation. Total RNA was extracted using TRIzol LS Reagent (Invitrogen) per the manufacturer's protocol. […]
# (§3) RT-qPCR was performed on RNA samples before and after pull-down as described in Real-Time Quantitative PCR to enable calculation of fold enrichment in the pulled down samples. Relative fold enrichment of tau pre-mRNA was measured using Equation 3: […]
# [4] = test system: DDPAC I17T MAPT exon 10 mini-gene luciferase reporter; experiment: Luciferase reporter assay, DDPAC I17T mutant mini-gene in HeLa cells; format: cell-based; details: Homo sapiens, 48 h, 5 μM (highest dose), read-out: reduction of luciferase activity
# Method: as §1, with “After removal of WST-1/DMEM from wells, the cells were washed again with 1×DPBS and treated with 100 μL of One-Glo EX reagent (Promega, E8110) per well.” left out
# [5] = test system: WT MAPT mini-gene pre-mRNA; experiment: Chem-CLIP / C-Chem-CLIP in HeLa cells transfected with WT mini-gene; format: cell-based; details: HeLa, WT mini-gene
# Method: as §2, §3
smiles,measurement,setting,value
"COc1cc(N)ncc1CCCN(C)CCCn1cnc2c3ccccc3n(C)c2c1=O [Compound 2, 3-(3-((3-(6-amino-4-methoxypyridin-3-yl)propyl)(methyl)amino)propyl)-5-methyl-3,5-dihydro-4H-pyrimido[5,4-b]indol-4-one]",solubility at 200 μM,[1],insolubility
same,Kd (estimated; no saturable binding),WT I17T mutant RNA,> 50000 nM
same,improvement in cellular luciferase reporter assay compared to 1,[2]; 2 vs 1,at least 10 fold
same,exclusion of exon 10 among eight conjugates (reduction of luciferase activity),"[2]; DDPAC mini-gene, HeLa",excluded exon 10 to the greatest extent
same,IC50,"[2]; Homo sapiens, HeLa, DDPAC mini-gene, 48 h, read-out: IC50, inhibition of luciferase activity (exon 10 inclusion)",600 ± 300 nM
same,competition of the interaction of 3 with reporter,[3],competed dose dependently
same,inhibition at 5 µM,[4],~15%
same,competition of the interaction of 3 with reporter,[5],competed dose dependently
